Data as given in ChEMBL document CHEMBL5725996, “Heteroaryl substituted pyridyl compounds useful as kinase modulators” (2017).

biological target: T1, Interleukin-1 receptor-associated kinase 4 (Homo sapiens, UniProt Q9NWZ3); assay: Inhibition Assay: The assays were performed in U-bottom 384-well plates. […] The reaction was initiated by the combination of IRAK4 with substrates and test compounds. The reaction mixture was incubated at room temperature for 60 min. and terminated by adding 45 μL of 35 mM EDTA to each sample. […] The final concentrations of reagents in the assays are ATP, 500 μM; FL-[…] peptide 1.5 μM; IRAK4, 0.6 nM; and DMSO, 1.6%.
T1 sequence (Q9NWZ3 whole entry): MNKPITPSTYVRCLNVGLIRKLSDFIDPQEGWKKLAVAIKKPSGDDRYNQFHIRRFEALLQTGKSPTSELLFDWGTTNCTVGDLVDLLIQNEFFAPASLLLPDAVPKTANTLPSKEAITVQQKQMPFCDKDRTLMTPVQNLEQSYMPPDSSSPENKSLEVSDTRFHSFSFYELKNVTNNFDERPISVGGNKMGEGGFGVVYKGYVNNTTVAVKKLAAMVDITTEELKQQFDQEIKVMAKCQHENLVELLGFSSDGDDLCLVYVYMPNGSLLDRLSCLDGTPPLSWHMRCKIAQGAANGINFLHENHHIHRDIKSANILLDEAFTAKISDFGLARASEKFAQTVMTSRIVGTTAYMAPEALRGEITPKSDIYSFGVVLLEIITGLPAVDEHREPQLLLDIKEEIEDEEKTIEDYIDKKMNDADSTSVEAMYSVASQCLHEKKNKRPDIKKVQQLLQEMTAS

Row | IC50 [nM] | SMILES
1 | 12.5 | CS[C@H]1CC[C@H](NC(=O)c2cnc(Nc3ncc(C#N)cc3F)cc2NC(C)C)CC1
2 | 9.4 | CCNC(=O)[C@H]1CC[C@H](NC(=O)c2cnc(Nc3ncc(C#N)cc3F)cc2NC(C)C)CC1
3 | 5.6 | CNC(=O)[C@H]1CC[C@H](NC(=O)c2cnc(Nc3ccc(C#N)cn3)cc2NC(C)C)CC1
4 | 5.5 | CC(C)(O)[C@H](F)CNC(=O)c1cnc(Nc2ncncc2Cl)cc1NC1CC1
5 | 4.1 | CC(C)Nc1cc(Nc2ncc(C#N)cc2Cl)ncc1C(=O)NC1CCC(C(C)(C)O)CC1 (stereo unspecified)
6 | 4.6 | CC(C)Nc1cc(Nc2ccc(C#N)cn2)ncc1C(=O)NC1CCC(O)(c2ccnn2C)CC1 (stereo unspecified)
7 | 12.6 | COC[C@H](F)CNC(=O)c1cnc(Nc2ncc(C#N)cc2F)cc1NC(C)C
8 | 19.9 | CC(C)Nc1cc(Nc2nc(OC3CCNCC3)ncc2Cl)ncc1C(=O)NC[C@@H](F)C(C)(C)O
9 | 2.1 | CC(C)(O)[C@H](F)CNC(=O)c1cnc(Nc2ncc(C#N)cc2Cl)cc1NC1CCOCC1
10 | 9.3 | CC(C)(O)CNc1cc(Nc2ncc(C#N)cc2Cl)ncc1C(=O)NC[C@@H](F)C(C)(C)O
11 | 16.8 | CC(=O)N[C@H]1CC[C@H](NC(=O)c2cnc(Nc3ncncc3Cl)cc2NC(C)C)CC1
